Here are results for 4 molecules from PubChem BioAssay (NCI).

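Cells were grown in 96-well plates and exposed to each compound for 48 hours at five concentrations; endpoints were interpolated linearly between bracketing concentrations, or set to the highest concentration if not reached. The concentration for full growth arrest is given as TGI.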

Some test systems named below: NCI-H23 lung; HCT-15 colon; UO-31 renal; MOLT-4 leukemia; CCRF-CEM leukemia; TK-10 renal; HL-60(TB) leukemia; UACC-62 melanoma; NCI-H226 lung; COLO 205 colon.
Common to all, as to experiment: growth of human tumour cells (NCI), 48 h

Regarding `CCOC1SC(SC)=NN1C(=O)C(OC(C)=O)C(OC(C)=O)C(OC(C)=O)C(OC(C)=O)C(=O)N1N=C(SC)SC1OCC` (stereo not given), the TGI in the test on NCI-H23 lung, with HCT-15 colon, with UO-31 renal, in the test on MOLT-4 leukemia, in the test on CCRF-CEM leukemia and with TK-10 renal was > 100 µM throughout. Also, the TGI in the test on HL-60(TB) leukemia, in the test with UACC-62 melanoma, in the test on NCI-H226 lung and with COLO 205 colon was > 100 µM throughout.

For `CCNc1ncnc2n[nH]nc12`, the TGI in the test with NCI-H23 lung, with HCT-15 colon, with UO-31 renal, in the test on MOLT-4 leukemia, with CCRF-CEM leukemia and in the test with TK-10 renal was > 100 µM in each case. Besides, the TGI with HL-60(TB) leukemia, with UACC-62 melanoma, in the test with NCI-H226 lung and in the test on COLO 205 colon was > 100 µM each time.

`c1ccc2c(c1)C(=Nc1ccc(N=C3c4ccccc4-c4ccccc43)cc1)c1ccccc1-2`: the TGI with NCI-H23 lung, in the test with HCT-15 colon, in the test on UO-31 renal, in the test with MOLT-4 leukemia, in the test on CCRF-CEM leukemia and with TK-10 renal was > 100 µM in each case. For the same molecule, the TGI in the test on HL-60(TB) leukemia, with UACC-62 melanoma, in the test on NCI-H226 lung and in the test on COLO 205 colon was > 100 µM throughout.

For the molecule `COC(=O)[C@@H]1C[C@]2(CC=C(C)C)c3ccccc3N(S(=O)(=O)c3ccccc3)[C@@H]2N1C(=O)OC`, the TGI in the test on NCI-H23 lung is > 100 µM; in the test on HCT-15 colon, 55.8 µM; in the test on UO-31 renal, > 100 µM; with MOLT-4 leukemia, > 100 µM; with CCRF-CEM leukemia, > 100 µM; in the test with TK-10 renal it was > 100 µM. The TGI in the test with HL-60(TB) leukemia is 33.5 µM; in the test with UACC-62 melanoma it was 51.8 µM; in the test with NCI-H226 lung it was 89.1 µM; in the test on COLO 205 colon it was > 100 µM.
